{"source": "patent EP4792811A1", "about": "“S1PR4 REGULATOR COMPOUND FOR MUSCLE DISEASE TREATMENT AND APPLICATION THEREOF” (Shengyuan Zetong (Shanghai) Pharmaceutical Co., Ltd, priority 2023, dated 2025)", "key": {"[1]": {"test_system": "Duchenne muscular dystrophy model mice", "experiment": "In vivo pharmacodynamic test in Duchenne muscular dystrophy model mice (Compound 30)", "conditions": "for serum creatine kinase level: after treatment", "experimental": "Experimental Animals: A total of 35 Duchenne muscular dystrophy model mice were divided into 6 groups as shown below.\nIntragastric administration was initiated from Day 0. Body weight was measured daily during the experiment to adjust the drug dosage. Grip strength tests were performed every 2 days to observe changes in the mice's grip strength until the experiment concluded on Day 21. Changes in the limb grip strength, serum creatine kinase content, and muscle fibrosis/inflammation in the mice were detected as indicators for evaluating drug efficacy.\nThe mouse was placed horizontally on the grip test board. The mouse's tail was held and pulled gently in the opposite direction without using excessive force. The tail was gradually pulled until the mouse released the grip force sensor. The maximum value recorded by the grip force sensor is the grip strength. The test was repeated for 3 times and the average value was taken.\nAfter the completion of administration, blood was collected via the orbital sinus, allowed to stand for 30 minutes, centrifuged at 3000 rpm at 4°C for 15 minutes, and serum was extracted, stored frozen at -20°C, and detected in accordance with the kit instructions.\nAfter the experiment, the tibialis anterior, extensor digitorum longus, and diaphragm of the mice were harvested, fixed, sectioned, and subjected to HE staining and Sirius Red staining to observe the degree of muscle fibrosis. The slice was subjected to immunofluorescence staining with F4/80 to observe the level of muscle inflammation."}, "LPS-induced sepsis model": {"test_system": "LPS-induced sepsis model", "experiment": "LPS-induced sepsis myopathy (skeletal muscle atrophy) model", "assay_type": "in vivo, mice", "conditions": "for atrophy of the tibialis anterior muscle: 14 days of LPS treatment; for survival rate: 14 days after LPS (1 mg/kg)", "text": "Animal models of sepsis can be established by injecting exogenous toxins into animals. In this study, a sepsis model was established via intraperitoneal injection of lipopolysaccharide to observe the effects of compounds on the occurrence and development of acquired weakness. This is a widely used method for modeling sepsis.\nA skeletal muscle atrophy model induced by lipopolysaccharide can simulate clinical muscle atrophy caused by sepsis.\nMice were given a single intraperitoneal injection of LPS (1 mg/kg), followed by 14 consecutive days of intraperitoneal injection of either vehicle (1% DMSO dissolved in physiological saline) or Compound 30. Body weight was measured daily. After 14 days of LPS treatment, the mice were anesthetized, and the gastrocnemius and tibialis anterior muscles were harvested."}, "[2]": {"conditions": "0.3 mg/kg intragastric once daily"}, "[3]": {"conditions": "0.3 mg/kg intragastric once daily, compared with the model group"}, "[4]": {"conditions": "1 mg/kg intragastric once daily"}, "[5]": {"conditions": "3 mg/kg intragastric once daily"}}}
{"smiles": "CCc1cc(/C(C)=N/OCc2ccc(-c3ccccc3)c(C)c2)ccc1CN1CC[C@H](C(=O)O)C1", "note": "[Compound 30]", "values": [{"measurement": "collagen deposition (collagen area ratio)", "setting": "[1]; [2]", "value": "significantly reduced collagen deposition"}, {"measurement": "serum creatine kinase level", "setting": "[1]; [2]", "value": "significantly reduced"}, {"measurement": "body weight growth trend", "setting": "[1]; [3]", "value": "no difference"}, {"measurement": "number of centrally nucleated fibers (HE staining)", "setting": "[1]; [3]", "value": "no significant difference"}, {"measurement": "collagen deposition (collagen area ratio)", "setting": "[1]; [4]", "value": "significantly reduced collagen deposition"}, {"measurement": "macrophage content (F4/80 immunofluorescence, muscle inflammation)", "setting": "[1]; [4]", "value": "significantly reduced macrophage content"}, {"measurement": "number of centrally nucleated fibers (HE staining)", "setting": "[1]; [4]", "value": "significantly reduced"}, {"measurement": "serum creatine kinase level", "setting": "[1]; [4]", "value": "significantly reduced"}, {"measurement": "body weight growth trend", "setting": "[1]; 1 mg/kg intragastric once daily, compared with the model group", "value": "no difference"}, {"measurement": "collagen deposition (collagen area ratio)", "setting": "[1]; [5]", "value": "significantly reduced collagen deposition"}, {"measurement": "macrophage content (F4/80 immunofluorescence, muscle inflammation)", "setting": "[1]; [5]", "value": "significantly reduced macrophage content"}, {"measurement": "number of centrally nucleated fibers (HE staining)", "setting": "[1]; [5]", "value": "significantly reduced"}, {"measurement": "serum creatine kinase level", "setting": "[1]; [5]", "value": "significantly reduced"}, {"measurement": "body weight growth trend", "setting": "[1]; 3 mg/kg intragastric once daily, compared with the other groups", "value": "relatively slow"}, {"measurement": "increase in grip strength (ratio of grip strength to body weight)", "setting": "[1]; 3 mg/kg intragastric once daily, first 14 days", "value": "most significant"}, {"measurement": "atrophy of the tibialis anterior muscle", "setting": "LPS-induced sepsis model; high dose (Compound 30: 10mg/kg intraperitoneal once daily), 10 mg/kg", "value": "significantly inhibited"}, {"measurement": "survival rate", "setting": "LPS-induced sepsis model; low-dose group (0.1mg/kg intraperitoneal once daily)", "value": 75, "unit": "%"}, {"measurement": "atrophy of the tibialis anterior muscle", "setting": "LPS-induced sepsis model; medium dose (Compound 30: 1mg/kg intraperitoneal once daily), 1 mg/kg", "value": "significantly inhibited"}, {"measurement": "survival rate", "setting": "LPS-induced sepsis model; medium-dose group (1mg/kg intraperitoneal once daily)", "value": 50, "unit": "%"}]}
